A short description of data set [1]: Mean residence time in Sprague-Dawley rat at 10 mg/kg, po administered as single dose via gavage. In kind it is ADME, organism-based. The conditions noted are these: in vivo.
Data set [2] relates to Staphylococcus aureus. The experiment in a line: Antibacterial activity against linezolid-resistant Staphylococcus aureus NRS-271 measured after 16 hrs. The format is functional. The settings on record: NRS-271, 16 h.
Data set [3] concerns Staphylococcus aureus. The experiment in a line: Antibacterial activity against oxacillin/tetracycline-resistant Staphylococcus aureus NRS-100 measured after 16 hrs. The format is functional. The settings on record: NRS-100, 16 h.
A short description of data set [4]: Cmax in Sprague-Dawley rat at 10 mg/kg, po administered as single dose via gavage. The arrangement: dose 10 mg/kg, route oral. The format is ADME, organism-based. The conditions noted are these: in vivo.
Data set [5] in a line: Apparent volume of distribution in Sprague-Dawley rat at 10 mg/kg, po administered as single dose via gavage. The format is ADME, organism-based. The settings on record: in vivo.
Data set [6] deals with Staphylococcus aureus. Nature of the data set: Antibacterial activity against erythromycin-resistant Staphylococcus aureus NRS-70 measured after 16 hrs. In kind it is functional. The settings on record: NRS-70, 16 h.
A short description of data set [7]: AUC (0 to infinity) in Sprague-Dawley rat at 10 mg/kg, po administered as single dose via gavage. On the set-up: dose 10 mg/kg, route oral, time infinity. In kind it is ADME, organism-based. The conditions noted are these: in vivo.
A further data set concerns Escherichia coli. The experiment in a line: Antibacterial activity against Escherichia coli AB1157 measured after 16 hrs. The format is functional. The conditions noted are these: AB1157, 16 h.
The subject of data set [8] is Staphylococcus aureus. Nature of the data set: Antibacterial activity against aminoglycosides/tetracycline-resistant Staphylococcus aureus NRS-1 measured after 16 hrs. The format is functional. The settings on record: NRS-1, 16 h.
Data set [9] is described as follows: Tmax in Sprague-Dawley rat at 10 mg/kg, po administered as single dose via gavage. The format is ADME, organism-based. The conditions noted are these: in vivo.
For data set [10], the system named is Staphylococcus aureus. Nature of the data set: Antibacterial activity against gentamicin-resistant Staphylococcus aureus NRS-108 measured after 16 hrs. The settings on record: NRS-108, 16 h. In kind it is functional.
The nature of data set [11]: Half life in Sprague-Dawley rat at 10 mg/kg, po administered as single dose via gavage. The settings on record: in vivo. The format is ADME, organism-based.
A short description of data set [12]: AUC (0 to t) in Sprague-Dawley rat at 10 mg/kg, po administered as single dose via gavage. In kind it is ADME, organism-based. The settings on record: in vivo.
The nature of data set [13]: Clearance in Sprague-Dawley rat at 10 mg/kg, po administered as single dose via gavage. The format is ADME, organism-based. The settings on record: in vivo.
Data set [14] concerns Staphylococcus aureus. The experiment in a line: Antibacterial activity against Staphylococcus aureus Newman measured after 16 hrs. In kind it is functional.

≈ marks a conversion by molar mass, not a printed value. Bounds are passed on as bounds.

As to `CC(C)CNc1nccc(NCCCNC2CCCc3c2[nH]c2ccc(Br)cc32)n1` (stereo not drawn), the MRT in [1] was 16.2 h. The MIC against Staphylococcus aureus [2] fell in the range of 0.78 to 1.56 µg/mL (≈ 1.65 to 3.31 µM); in the data set with Staphylococcus aureus [3] it was 0.78 to 1.56 µg/mL (≈ 1.65 to 3.31 µM); against Staphylococcus aureus [6], 0.78 to 1.56 µg/mL (≈ 1.65 to 3.31 µM); against Escherichia coli, 0.39 to 0.78 µg/mL (≈ 0.827 to 1.65 µM); with Staphylococcus aureus [8], 0.39 to 0.78 µg/mL (≈ 0.827 to 1.65 µM); in the data set with Staphylococcus aureus [10], 0.78 to 1.56 µg/mL (≈ 1.65 to 3.31 µM). The same molecule came in with an MIC in the data set with Staphylococcus aureus [14] of 0.39 to 0.78 µg/mL (≈ 0.827 to 1.65 µM). The Cmax in data set [4] amounted to 86.3 ng/mL. Further, the Vd/F in data set [5] is 103 L/kg. The same molecule returned an AUC(0-inf) in data set [7] of 1560 ng·h/mL. In addition, in data set [9], the Tmax is 3.6 h. Also, the half-life in data set [11] was 10.8 h. For the same molecule, the AUC(0-t) in data set [12] is 1200 ng·h/mL. Also, the CL/F in data set [13] is 110 mL/min/kg.
Consider `CN(C)[C@@H]1C(O)=C(C(N)=O)C(=O)[C@@]2(O)C(O)=C3C(=O)c4c(O)cccc4[C@@](C)(O)[C@H]3C[C@@H]12` [TETRACYCLINE], for which the MIC against Staphylococcus aureus [2] is under 1.56 µg/mL; with Staphylococcus aureus [3] it was under 1.56 µg/mL; in the data set with Staphylococcus aureus [6], under 1.56 µg/mL; with Staphylococcus aureus [8], over 12.5 µg/mL; with Staphylococcus aureus [10], under 1.56 µg/mL.
`CC(C)CNc1nccc(NCCCNC2CCCc3c2[nH]c2ccc(C(F)(F)F)cc32)n1` (stereo not drawn): the MIC with Staphylococcus aureus [2], with Staphylococcus aureus [3], in the data set on Staphylococcus aureus [6], in the data set on Escherichia coli, against Staphylococcus aureus [8] and in the data set on Staphylococcus aureus [10] was 1.56 to 3.13 µg/mL (≈ 3.39 to 6.8 µM) throughout. Besides, the MIC against Staphylococcus aureus [14] fell in the range of 1.56 to 3.13 µg/mL (≈ 3.39 to 6.8 µM).
Take `CC(C)CNc1nccc(NCCCNC2CCCc3c2[nH]c2ccc(C(=O)O)cc32)n1` (stereo not drawn): the minimum inhibitory concentration (MIC) with Escherichia coli and in the data set on Staphylococcus aureus [14] was over 50 µg/mL in each case.
As for `CN[C@H](CC(C)C)C(=O)N[C@H]1C(=O)N[C@@H](CC(N)=O)C(=O)N[C@H]2C(=O)N[C@H]3C(=O)N[C@H](C(=O)N[C@H](C(=O)O)c4cc(O)cc(O)c4-c4cc3ccc4O)[C@H](O)c3ccc(c(Cl)c3)Oc3cc2cc(c3O[C@@H]2O[C@H](CO)[C@@H](O)[C@H](O)[C@H]2O[C@H]2C[C@](C)(N)[C@H](O)[C@H](C)O2)Oc2ccc(cc2Cl)[C@H]1O` [VANCOMYCIN], the MIC in the data set on Escherichia coli was 6.25 to 12.5 µg/mL (≈ 4.31 to 8.63 µM).
With `CC(C)CNc1nccc(NCCCCNC2CCCc3c2[nH]c2ccc(Br)cc32)n1` (stereo not drawn), the results for the MIC with Escherichia coli and against Staphylococcus aureus [14] were 1.56 to 3.13 µg/mL (≈ 3.21 to 6.45 µM) and 0.78 to 1.56 µg/mL (≈ 1.61 to 3.21 µM), respectively.
In the data set on Staphylococcus aureus [14], `Cc1ccc2[nH]c3c(c2c1)CCCC3NCCCc1ccccc1` (stereo not drawn) displayed an MIC of 4 to 8 µg/mL (≈ 12.6 to 25.1 µM).
For the molecule `COC(=O)c1ccc2[nH]c3c(c2c1)CCCC3NCCCNc1ccnc(NCC(C)C)n1` (stereo not drawn), the values for the MIC with Escherichia coli and with Staphylococcus aureus [14] were over 50 µg/mL and 25 to 50 µg/mL (≈ 55.5 to 111 µM), respectively.
Consider `NC[C@H]1O[C@H](O[C@H]2[C@H](O)[C@@H](O[C@H]3O[C@H](CO)[C@@H](O)[C@H](N)[C@H]3O)[C@H](N)C[C@@H]2N)[C@H](O)[C@@H](O)[C@@H]1O` [KANAMYCIN], for which the MIC was 50 to 75 µg/mL (≈ 103 to 155 µM) against Staphylococcus aureus [6], over 50 µg/mL against Escherichia coli, 50 to 75 µg/mL (≈ 103 to 155 µM) in the data set with Staphylococcus aureus [8] and 50 to 75 µg/mL (≈ 103 to 155 µM) in the data set on Staphylococcus aureus [10].
Molecule `Cc1ccc2[nH]c3c(c2c1)CCCC3NCc1ccccc1` (stereo not drawn) returned an MIC against Staphylococcus aureus [14] of 14.5 to 20.9 µg/mL (≈ 49.9 to 72 µM).
`Cc1ccc2[nH]c3c(c2c1)CCCC3NCCCCc1ccccc1` (stereo not drawn): the MIC in the data set with Staphylococcus aureus [2] is 4.2 to 5.8 µg/mL (≈ 12.6 to 17.4 µM); against Staphylococcus aureus [3], 2.9 to 4.2 µg/mL (≈ 8.72 to 12.6 µM); against Staphylococcus aureus [6] it was 2.9 to 4.2 µg/mL (≈ 8.72 to 12.6 µM); against Staphylococcus aureus [8] it was 2.9 to 4.2 µg/mL (≈ 8.72 to 12.6 µM); in the data set on Staphylococcus aureus [10] it was 4.2 to 5.8 µg/mL (≈ 12.6 to 17.4 µM); in the data set on Staphylococcus aureus [14], 5 to 6.6 µg/mL (≈ 15 to 19.9 µM).
With `CC(C)CNc1nccc(NCCCNC2CCCc3c2[nH]c2ccc(Cl)cc32)n1` (stereo not drawn), the MIC against Staphylococcus aureus [2] is 1.56 to 3.13 µg/mL (≈ 3.65 to 7.33 µM); in the data set on Staphylococcus aureus [3], 3.13 to 6.25 µg/mL (≈ 7.33 to 14.6 µM); in the data set on Staphylococcus aureus [6], 3.13 to 6.25 µg/mL (≈ 7.33 to 14.6 µM); against Escherichia coli it was 1.56 to 3.13 µg/mL (≈ 3.65 to 7.33 µM); in the data set on Staphylococcus aureus [8], 1.56 to 3.13 µg/mL (≈ 3.65 to 7.33 µM); in the data set on Staphylococcus aureus [10] it was 1.56 to 3.13 µg/mL (≈ 3.65 to 7.33 µM). Besides, the MIC against Staphylococcus aureus [14] was in the range of 1.56 to 3.13 µg/mL (≈ 3.65 to 7.33 µM).
The molecule `Cc1ccc2[nH]c3c(c2c1)CCCC3NCCc1ccccc1` (stereo not drawn) registered an MIC against Staphylococcus aureus [14] of 15 to 30.2 µg/mL (≈ 49.3 to 99.2 µM).
Still for that read-out and setting: for `CC(C)CNc1nccc(NC2CCCc3c2[nH]c2ccc(OC(F)(F)F)cc32)n1` (stereo not drawn) the value was 0.78 to 1.56 µg/mL (≈ 1.86 to 3.72 µM).
As for `CC(C)CNc1nccc(NCCNC2CCCc3c2[nH]c2ccc(OC(F)(F)F)cc32)n1` (stereo not drawn), the MIC in the data set with Escherichia coli and against Staphylococcus aureus [14] was 3.13 to 6.25 µg/mL (≈ 6.77 to 13.5 µM) in each case.
As to `COc1ccc2[nH]c3c(c2c1)CCCC3NCCCNc1ccnc(NCC(C)C)n1` (stereo not drawn), the MIC in the data set with Escherichia coli is over 50 µg/mL; against Staphylococcus aureus [14] it was 25 to 50 µg/mL (≈ 59.2 to 118 µM).
Consider `CC(C)CNc1nccc(NCCCNC2CCCc3c2[nH]c2ccccc32)n1` (stereo not drawn), for which the MIC against Escherichia coli and with Staphylococcus aureus [14] was 12.5 to 25 µg/mL (≈ 31.8 to 63.7 µM) in each case.
With `CC(C)CNc1nccc(NCCNC2CCCc3c2[nH]c2ccc(Br)cc32)n1` (stereo not drawn), the MIC in the data set on Escherichia coli and in the data set on Staphylococcus aureus [14] was 1.56 to 3.13 µg/mL (≈ 3.41 to 6.84 µM) in each case.
`CC(C)CNc1nccc(NCCCNC2CCCc3c2[nH]c2c(Br)cccc32)n1` (stereo not drawn): the MIC against Staphylococcus aureus [2] lay in the range of 6.25 to 12.5 µg/mL (≈ 13.3 to 26.5 µM); against Staphylococcus aureus [3], 6.25 to 12.5 µg/mL (≈ 13.3 to 26.5 µM); against Staphylococcus aureus [6] it was 6.25 to 12.5 µg/mL (≈ 13.3 to 26.5 µM); in the data set with Escherichia coli, 6.25 to 12.5 µg/mL (≈ 13.3 to 26.5 µM); against Staphylococcus aureus [8] it was 3.13 to 6.25 µg/mL (≈ 6.64 to 13.3 µM); in the data set with Staphylococcus aureus [10], 6.25 to 12.5 µg/mL (≈ 13.3 to 26.5 µM). In the data set with Staphylococcus aureus [14], the MIC was 3.13 to 6.25 µg/mL (≈ 6.64 to 13.3 µM).
With `COc1cccc2c3c([nH]c12)C(NCCCNc1ccnc(NCC(C)C)n1)CCC3` (stereo not drawn), the MIC with Escherichia coli and with Staphylococcus aureus [14] was 12.5 to 25 µg/mL (≈ 29.6 to 59.2 µM) throughout.
On to `CC(C)CNc1nccc(NCCCCNC2CCCc3c2[nH]c2ccc(OC(F)(F)F)cc32)n1` (stereo not drawn), for which the MIC with Escherichia coli was 3.13 to 6.25 µg/mL (≈ 6.38 to 12.7 µM); against Staphylococcus aureus [14], 1.56 to 3.13 µg/mL (≈ 3.18 to 6.38 µM).
On to `CC(C)CNc1nccc(NCCCNC2CCCc3c2[nH]c2ccc(F)cc32)n1` (stereo not drawn), for which the minimum inhibitory concentration (MIC) with Escherichia coli and with Staphylococcus aureus [14] was 12.5 to 25 µg/mL (≈ 30.4 to 60.9 µM) in each case.
`CC(C)CNc1nccc(NCCCNC2CCCc3c2[nH]c2ccc(OC(F)(F)F)cc32)n1` (stereo not drawn): the MIC with Staphylococcus aureus [2], against Staphylococcus aureus [3], in the data set on Staphylococcus aureus [6], against Escherichia coli, in the data set with Staphylococcus aureus [8] and in the data set with Staphylococcus aureus [10] was 1.56 to 3.13 µg/mL (≈ 3.27 to 6.57 µM) in each case. The molecule also yielded an MIC in the data set on Staphylococcus aureus [14] of 1.56 to 3.13 µg/mL (≈ 3.27 to 6.57 µM).

The values are drawn from ChEMBL document CHEMBL4382226, “Design, synthesis and evaluation of hybrid of tetrahydrocarbazole with 2,4-diaminopyrimidine scaffold as antibacterial agents” (Eur J Med Chem, 2019).
